According to ChEMBL document CHEMBL1159165, “Novel, selective mechanism-based inhibitors of the herpes proteases” (Bioorg Med Chem Lett, 1996):

Columns and labels:
Human betaherpesvirus 5 [1] = assay: Compound was evaluated for inhibitory activity against human cytomegalovirus (HCMV) protease.; type: functional
Human betaherpesvirus 5 [2] = assay: Compound was evaluated for inhibitory activity against human cytomegalovirus (HCMV) protease 10 uM; type: functional
[3] = Compound was evaluated for inhibitory activity against herpes simplex type 2 protease (HSV-2 pr) at dose of 10 uM; settings: Human alphaherpesvirus 2
[4] = Compound was evaluated for inhibitory activity against elastase at dose of 100 uM
[5] = biological target: Serine protease 1 (Homo sapiens) (UniProt P07477); assay: Compound was evaluated for inhibitory activity against trypsin at dose of 100 uM
Chain of Serine protease 1 (Homo sapiens) (P07477 whole entry): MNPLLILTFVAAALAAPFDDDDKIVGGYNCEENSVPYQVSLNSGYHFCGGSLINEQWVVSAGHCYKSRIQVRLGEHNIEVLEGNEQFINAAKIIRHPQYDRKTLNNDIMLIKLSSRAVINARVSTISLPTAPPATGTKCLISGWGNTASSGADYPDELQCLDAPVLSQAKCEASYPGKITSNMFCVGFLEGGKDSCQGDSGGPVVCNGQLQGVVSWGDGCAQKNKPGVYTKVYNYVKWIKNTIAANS

Human betaherpesvirus 5 [6] = assay: Compound was evaluated for inhibitory activity against human cytomegalovirus (HCMV) protease at dose of 10 uM; type: functional
[7] = Compound was evaluated for inhibitory activity against Chymotrypsinogen at dose of 100 uM
[8] = Compound was evaluated for inhibitory activity against Chymotrypsinogen at dose of 22 uM

IC50 (Human betaherpesvirus 5 [1]) [µM] | inhibition [3] [%] | inhibition [4] [%] | SMILES | further results
1.1 |  |  | CC(=O)Oc1ccc([C@H]2C[C@@]23N=C(c2ccccc2)OC3=O)cc1 | 
 | 71 |  | O=C1OC(c2ccccc2)=NC12CC2 | Inhibition (Human betaherpesvirus 5 [2]): 16%
0.16 |  |  | CC(=O)n1cc([C@H]2C[C@@]23N=C(c2ccccc2)OC3=O)c2ccccc21 | 
 |  | 82 | CC1=N[C@@]2(C[C@@H]2c2ccccc2)C(=O)O1 | inhibition [5]: 88%
2.3 | 20 |  | COc1ccc(S(=O)(=O)ON2C(=O)/C(=C/c3ccccc3)N=C2c2ccccc2)cc1 | 
0.4 |  | 33 | CS(=O)(=O)ON1C(=O)/C(=C/c2ccccc2)N=C1c1ccccc1 | 
0.2 |  | 35 | COc1ccc([C@H]2C[C@@]23N=C(c2ccccc2)OC3=O)cc1 | inhibition [7]: 92%; inhibition [5]: 64%
 | 24 |  | O=C1OC(c2ccccc2)=N[C@@]12C[C@H]2c1ccccc1 | inhibition at 10 µM (Human betaherpesvirus 5 [6]): 85%
1.8 |  | 42 | O=C1OC(c2ccccc2)=N[C@@]12C[C@@H]2c1ccccc1 | inhibition [5]: 63%; inhibition [8]: 92%
 | 14 |  | CC(=O)ON1C(=O)/C(=C/c2ccccc2)N=C1c1ccccc1 | inhibition at 10 µM (Human betaherpesvirus 5 [6]): 35%

SMILES | IC50 (Human betaherpesvirus 5 [1]) [µM] | inhibition [3] [%] | inhibition [4] [%] | further results
CCOP(=O)(OCC)ON1C(=O)/C(=C/c2ccccc2)N=C1c1ccccc1 |  | 5 |  | inhibition at 10 µM (Human betaherpesvirus 5 [6]): 20%
